From ChEMBL document CHEMBL3885881, “DrugMatrix”

Species on record: Rattus norvegicus
Experiment: DrugMatrix - Regimen: Daily Repeat
Type: toxicity, organism-based, Sprague-Dawley
Design: regimen Daily Repeat, gender Male, age 6-8 weeks
Details: in vivo, […]; for NEUTROPHIL / PLATELET COUNT / ABSOLUTE BASOPHIL / ABSOLUTE EOSINOPHIL / ABSOLUTE LYMPHOCYTE / ABSOLUTE MONOCYTE / ABSOLUTE SEGMENTED NEUTROPHIL / BASOPHIL / EOSINOPHIL / ERYTHROCYTE COUNT / HEMATOCRIT / HEMOGLOBIN / LEUKOCYTE COUNT / LYMPHOCYTE / MEAN CORPUSCULAR HEMOGLOBIN / MEAN CORPUSCULAR HEMOGLOBIN CONCENTRATION / MEAN CORPUSCULAR VOLUME / MONOCYTE / NUCLEATED RED BLOOD CELLS: tissue Blood; for ALANINE AMINOTRANSFERASE / ALBUMIN / ALKALINE PHOSPHATASE / ASPARTATE AMINOTRANSFERASE / BLOOD UREA NITROGEN / CHLORIDE / CHOLESTEROL / CREATINE PHOSPHOKINASE / CREATININE / GLUCOSE / LACTATE DEHYDROGENASE / LIPASE / PHOSPHORUS / POTASSIUM / TOTAL BILIRUBIN / TOTAL PROTEIN / URIC ACID / SODIUM / CARBON DIOXIDE: tissue Plasma
[1] = ip, 2 mg/kg, route intraperitoneal, dose level High, time 28 day, vehicle 100 % SALINE
[2] = ip, 2 mg/kg, route intraperitoneal, dose level High, time 14 day, vehicle 100 % SALINE
[3] = po, 66 mg/kg, 72 h, route oral GAVAGE, dose level High, time 3 day
[4] = po, 66 mg/kg, 120 h, route oral GAVAGE, dose level High, time 5 day
[5] = po, 72 h, route oral GAVAGE, dose 6.6 mg/Kg, dose level Low, time 3 day
[6] = po, 120 h, route oral GAVAGE, dose 6.6 mg/Kg, dose level Low, time 5 day

Substance: CADMIUM DICHLORIDE
- NEUTROPHIL [1]: 24.62%
- PLATELET COUNT [1]: 1656.44 x10E3/uL
- ALANINE AMINOTRANSFERASE [2]: 35.4 u/L
- ALBUMIN [2]: 3.24 G/DL
- ALKALINE PHOSPHATASE [2]: 169.6 u/L
- ASPARTATE AMINOTRANSFERASE [2]: 182.2 u/L
- BLOOD UREA NITROGEN [2]: 23.8 mg/dL
- CHLORIDE [2]: 109.2 MEQ/L
- CHOLESTEROL [2]: 58.2 mg/dL
- CREATINE PHOSPHOKINASE [2]: 323 u/L
- CREATININE [2]: 0.3 mg/dL
- GLUCOSE [2]: 101 mg/dL
- LACTATE DEHYDROGENASE [2]: 321.4 u/L
- LIPASE [2]: 87.6 u/L
- PHOSPHORUS [2]: 10.28 mg/dL
- POTASSIUM [2]: 6.42 MEQ/L
- TOTAL BILIRUBIN [2]: 0.26 mg/dL
- TOTAL PROTEIN [2]: 5.94 G/DL
- URIC ACID [2]: 2.08 mg/dL
- ALANINE AMINOTRANSFERASE [1]: 39.44 u/L
- ALKALINE PHOSPHATASE [1]: 111 u/L
- ASPARTATE AMINOTRANSFERASE [1]: 167.44 u/L
- BLOOD UREA NITROGEN [1]: 19.67 mg/dL
- CHLORIDE [1]: 108.89 MEQ/L
- CHOLESTEROL [1]: 51.67 mg/dL
- CREATININE [1]: 0.44 mg/dL
- GLUCOSE [1]: 106.78 mg/dL
- LACTATE DEHYDROGENASE [1]: 230.56 u/L
- LIPASE [1]: 45.56 u/L
- POTASSIUM [1]: 6.7 MEQ/L
- SODIUM [1]: 151 MEQ/L
- TOTAL BILIRUBIN [1]: 0.28 mg/dL
- TOTAL PROTEIN [1]: 6.61 G/DL
- URIC ACID [1]: 1.71 mg/dL
- ABSOLUTE BASOPHIL [3]: 0 CELLS/uL
- ABSOLUTE EOSINOPHIL [3]: 54 CELLS/uL
- ABSOLUTE LYMPHOCYTE [3]: 13921.33 CELLS/uL
- ABSOLUTE MONOCYTE [3]: 108.67 CELLS/uL
- ABSOLUTE SEGMENTED NEUTROPHIL [3]: 2549.33 CELLS/uL
- BASOPHIL [3]: 0%
- EOSINOPHIL [3]: 0.33%
- ERYTHROCYTE COUNT [3]: 5.45 x10E6/uL
- HEMATOCRIT [3]: 35.37%
- HEMOGLOBIN [3]: 13.67 G/DL
- LEUKOCYTE COUNT [3]: 16.63 x10E3/uL
- LYMPHOCYTE [3]: 83.67%
- MEAN CORPUSCULAR HEMOGLOBIN [3]: 25.13 pg
- MEAN CORPUSCULAR HEMOGLOBIN CONCENTRATION [3]: 38.63 G/DL
- MEAN CORPUSCULAR VOLUME [3]: 64.97 fL
- MONOCYTE [3]: 0.67%
- NEUTROPHIL [3]: 15.33%
- NUCLEATED RED BLOOD CELLS [3]: 0 /100WBC
- PLATELET COUNT [3]: 1218.67 x10E3/uL
- ALANINE AMINOTRANSFERASE [3]: 57.67 u/L
- ALBUMIN [3]: 4.1 G/DL
- ALKALINE PHOSPHATASE [3]: 436 u/L
- ASPARTATE AMINOTRANSFERASE [3]: 100 u/L
- BLOOD UREA NITROGEN [3]: 12.33 mg/dL
- CARBON DIOXIDE [3]: 25 mmol/L
- CHOLESTEROL [3]: 60.33 mg/dL
- CREATINE PHOSPHOKINASE [3]: 279.67 u/L
- CREATININE [3]: 0.17 mg/dL
- LACTATE DEHYDROGENASE [3]: 310 u/L
- LIPASE [3]: 11.33 u/L
- PHOSPHORUS [3]: 12.93 mg/dL
- POTASSIUM [3]: 7.2 MEQ/L
- TOTAL BILIRUBIN [3]: 0.2 mg/dL
- TOTAL PROTEIN [3]: 5.77 G/DL
- ABSOLUTE BASOPHIL [4]: 0 CELLS/uL
- ABSOLUTE EOSINOPHIL [4]: 0 CELLS/uL
- ABSOLUTE LYMPHOCYTE [4]: 13248 CELLS/uL
- ABSOLUTE MONOCYTE [4]: 120 CELLS/uL
- ABSOLUTE SEGMENTED NEUTROPHIL [4]: 1432 CELLS/uL
- BASOPHIL [4]: 0%
- EOSINOPHIL [4]: 0%
- ERYTHROCYTE COUNT [4]: 5.79 x10E6/uL
- HEMATOCRIT [4]: 35.4%
- HEMOGLOBIN [4]: 14.15 G/DL
- LEUKOCYTE COUNT [4]: 14.8 x10E3/uL
- LYMPHOCYTE [4]: 88%
- MEAN CORPUSCULAR HEMOGLOBIN [4]: 24.55 pg
- MEAN CORPUSCULAR HEMOGLOBIN CONCENTRATION [4]: 39.95 G/DL
- MEAN CORPUSCULAR VOLUME [4]: 61.35 fL
- MONOCYTE [4]: 1%
- NEUTROPHIL [4]: 11%
- NUCLEATED RED BLOOD CELLS [4]: 0 /100WBC
- PLATELET COUNT [4]: 1357 x10E3/uL
- ALANINE AMINOTRANSFERASE [4]: 63 u/L
- ALBUMIN [4]: 4.1 G/DL
- ALKALINE PHOSPHATASE [4]: 217.5 u/L
- ASPARTATE AMINOTRANSFERASE [4]: 122 u/L
- BLOOD UREA NITROGEN [4]: 14 mg/dL
- CARBON DIOXIDE [4]: 18.5 mmol/L
- CHLORIDE [4]: 112 MEQ/L
- CHOLESTEROL [4]: 36 mg/dL
- CREATINE PHOSPHOKINASE [4]: 975 u/L
- CREATININE [4]: 0.2 mg/dL
- GLUCOSE [4]: 189 mg/dL
- LACTATE DEHYDROGENASE [4]: 198.5 u/L
- LIPASE [4]: 11.5 u/L
- POTASSIUM [4]: 6.8 MEQ/L
- TOTAL BILIRUBIN [4]: 0.1 mg/dL
- TOTAL PROTEIN [4]: 5.5 G/DL
- URIC ACID [4]: 2.35 mg/dL
- ABSOLUTE BASOPHIL [5]: 0 CELLS/uL
- ABSOLUTE EOSINOPHIL [5]: 0 CELLS/uL
- ABSOLUTE LYMPHOCYTE [5]: 17172.67 CELLS/uL
- ABSOLUTE MONOCYTE [5]: 193.33 CELLS/uL
- ABSOLUTE SEGMENTED NEUTROPHIL [5]: 1767.33 CELLS/uL
- BASOPHIL [5]: 0%
- EOSINOPHIL [5]: 0%
- ERYTHROCYTE COUNT [5]: 5.25 x10E6/uL
- HEMATOCRIT [5]: 32.93%
- HEMOGLOBIN [5]: 13.07 G/DL
- LEUKOCYTE COUNT [5]: 19.13 x10E3/uL
- MEAN CORPUSCULAR HEMOGLOBIN CONCENTRATION [5]: 39.7 G/DL
- MONOCYTE [5]: 1%
- NUCLEATED RED BLOOD CELLS [5]: 0 /100WBC
- PLATELET COUNT [5]: 1216 x10E3/uL
- ALANINE AMINOTRANSFERASE [5]: 81 u/L
- ALBUMIN [5]: 4 G/DL
- ALKALINE PHOSPHATASE [5]: 508.5 u/L
- ASPARTATE AMINOTRANSFERASE [5]: 91.67 u/L
- BLOOD UREA NITROGEN [5]: 11.67 mg/dL
- CARBON DIOXIDE [5]: 26 mmol/L
- CHOLESTEROL [5]: 77.33 mg/dL
- CREATINE PHOSPHOKINASE [5]: 283.33 u/L
- CREATININE [5]: 0.19 mg/dL
- GLUCOSE [5]: 152.67 mg/dL
- LACTATE DEHYDROGENASE [5]: 195 u/L
- LIPASE [5]: 12.33 u/L
- PHOSPHORUS [5]: 11.57 mg/dL
- POTASSIUM [5]: 6.8 MEQ/L
- TOTAL BILIRUBIN [5]: 0.2 mg/dL
- TOTAL PROTEIN [5]: 5.57 G/DL
- URIC ACID [5]: 1.3 mg/dL
- ABSOLUTE BASOPHIL [6]: 0 CELLS/uL
- ABSOLUTE EOSINOPHIL [6]: 0 CELLS/uL
- ABSOLUTE LYMPHOCYTE [6]: 4729 CELLS/uL
- ABSOLUTE MONOCYTE [6]: 0 CELLS/uL
- ABSOLUTE SEGMENTED NEUTROPHIL [6]: 237.67 CELLS/uL
- BASOPHIL [6]: 0%
- EOSINOPHIL [6]: 0%
- ERYTHROCYTE COUNT [6]: 5.13 x10E6/uL
- HEMATOCRIT [6]: 30.77%
- HEMOGLOBIN [6]: 12.03 G/DL
- LEUKOCYTE COUNT [6]: 4.97 x10E3/uL
- LYMPHOCYTE [6]: 94.67%
- MEAN CORPUSCULAR HEMOGLOBIN [6]: 23.43 pg
- MEAN CORPUSCULAR HEMOGLOBIN CONCENTRATION [6]: 39.13 G/DL
- MONOCYTE [6]: 0%
- NEUTROPHIL [6]: 5.33%
- NUCLEATED RED BLOOD CELLS [6]: 0 /100WBC
- PLATELET COUNT [6]: 996.33 x10E3/uL
- ALANINE AMINOTRANSFERASE [6]: 78.67 u/L
- ALKALINE PHOSPHATASE [6]: 485.67 u/L
- ASPARTATE AMINOTRANSFERASE [6]: 93 u/L
- BLOOD UREA NITROGEN [6]: 12.67 mg/dL
- CARBON DIOXIDE [6]: 30 mmol/L
- CHOLESTEROL [6]: 72.33 mg/dL
- CREATINE PHOSPHOKINASE [6]: 141.33 u/L
- CREATININE [6]: 0.16 mg/dL
- GLUCOSE [6]: 141.33 mg/dL
- LACTATE DEHYDROGENASE [6]: 102.33 u/L
- LIPASE [6]: 11 u/L
- POTASSIUM [6]: 6.24 MEQ/L
- SODIUM [6]: 149.5 MEQ/L
- TOTAL BILIRUBIN [6]: 0.2 mg/dL
- URIC ACID [6]: 0.97 mg/dL
